PubChem BioAssay AID1963434 (Molecular Pharmacology Branch, DTP, NCI, 2024)
Each block holds one compound with its values, some of them ahead of it.

System: 755483-174-R-J1-PDC complex spheroid growth, percent test/control
Assay: Anticancer human tumor 755483-174-R-J1-PDC patient-derived rhabdomyosarcoma cell line growth inhibition [Asc]
Conditions: for IC50: curve of first compound; for viability, T/C: stronger effect = lower value
Summary of the method: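 Tumor cells were grown as complex spheroids with human endothelial cells (HUVEC) and human mesenchymal stem cells as stroma. Agents were tested alone and in combination, in half-log steps down from the clinical Cmax, or from 10 microM where Cmax was unknown.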

[1] = second compound 0.03 µM, first compound 0.00316 µM
[2] = second compound 0.03 µM, first compound 0.01 µM
[3] = second compound 0.03 µM, first compound 0.0316 µM
[4] = second compound 0.03 µM, first compound 0.1 µM
[5] = second compound 0.03 µM, first compound 0.316 µM
[6] = second compound 0.03 µM, first compound 1 µM
[7] = second compound 0.0949 µM, first compound 0.00316 µM
[8] = second compound 0.0949 µM, first compound 0.01 µM
[9] = second compound 0.0949 µM, first compound 0.0316 µM
[10] = second compound 0.0949 µM, first compound 0.1 µM
[11] = second compound 0.0949 µM, first compound 0.316 µM
[12] = second compound 0.0949 µM, first compound 1 µM
[13] = second compound 0.3 µM, first compound 0.00316 µM
[14] = second compound 0.3 µM, first compound 0.01 µM
[15] = second compound 0.3 µM, first compound 0.0316 µM
[16] = second compound 0.3 µM, first compound 0.1 µM
[17] = second compound 0.3 µM, first compound 0.316 µM
[18] = second compound 0.3 µM, first compound 1 µM
[19] = second compound 0.949 µM, first compound 0.00316 µM
[20] = second compound 0.949 µM, first compound 0.01 µM
[21] = second compound 0.949 µM, first compound 0.0316 µM
[22] = second compound 0.949 µM, first compound 0.1 µM
[23] = second compound 0.949 µM, first compound 0.316 µM
[24] = second compound 0.949 µM, first compound 1 µM
[25] = second compound 3 µM, first compound 0.00316 µM
[26] = second compound 3 µM, first compound 0.01 µM
[27] = second compound 3 µM, first compound 0.0316 µM
[28] = second compound 3 µM, first compound 0.1 µM
[29] = second compound 3 µM, first compound 0.316 µM
[30] = second compound 3 µM, first compound 1 µM
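Further: spheroids exposed to compounds for seven days before readout.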

IC50 (second compound 0.03 µM): > 1000 nM
IC50 (second compound 0.0949 µM): > 1000 nM
IC50 (second compound 0.3 µM): > 1000 nM
IC50 (second compound 0.949 µM): > 1000 nM
IC50 (second compound 3 µM): > 1000 nM
SMILES: CCN1CCN(Cc2ccc(Nc3ncc(F)c(-c4cc(F)c5nc(C)n(C(C)C)c5c4)n3)nc2)CC1 + CCN1C(C(=O)NC23CCC(C(=O)O)(CC2)CC3)C(c2cccc(Cl)c2F)C2(C(=O)Nc3cc(Cl)ccc32)C12CCCCC2
viability, T/C [1]: 103%
viability, T/C [2]: 97.3%
viability, T/C [3]: 112%
viability, T/C [4]: 127%
viability, T/C [5]: 108%
viability, T/C [6]: 133%
viability, T/C [7]: 89.3%
viability, T/C [8]: 116%
viability, T/C [9]: 115%
viability, T/C [10]: 109%
viability, T/C [11]: 138%
viability, T/C [12]: 116%
viability, T/C [13]: 87%
viability, T/C [14]: 103%
viability, T/C [15]: 124%
viability, T/C [16]: 113%
viability, T/C [17]: 124%
viability, T/C [18]: 127%
viability, T/C [19]: 98.7%
viability, T/C [20]: 114%
viability, T/C [21]: 122%
viability, T/C [22]: 86.8%
viability, T/C [23]: 129%
viability, T/C [24]: 137%
viability, T/C [25]: 107%
viability, T/C [26]: 109%
viability, T/C [27]: 98.6%
viability, T/C [28]: 121%
viability, T/C [29]: 126%
viability, T/C [30]: 113%

IC50 (second compound 0.03 µM): 68.5 nM
IC50 (second compound 0.0949 µM): 42.9 nM
IC50 (second compound 0.3 µM): 76.7 nM
IC50 (second compound 0.949 µM): 9.97 nM
IC50 (second compound 3 µM): 12.5 nM
SMILES: CNC(C)C(=O)NC1CN(S(=O)(=O)c2cccc(S(=O)(=O)N3CCC4CCC(C(=O)NC(c5ccccc5)c5ccccc5)N4C(=O)C(NC(=O)C(C)NC)C3)c2)CCC2CCC(C(=O)NC(c3ccccc3)c3ccccc3)N2C1=O (stereo not given) + CCN1C(C(=O)NC23CCC(C(=O)O)(CC2)CC3)C(c2cccc(Cl)c2F)C2(C(=O)Nc3cc(Cl)ccc32)C12CCCCC2
viability, T/C [1]: 80.3%
viability, T/C [2]: 65.6%
viability, T/C [3]: 51.9%
viability, T/C [4]: 52%
viability, T/C [5]: 39.7%
viability, T/C [6]: 36.2%
viability, T/C [7]: 74.6%
viability, T/C [8]: 64.6%
viability, T/C [9]: 51.1%
viability, T/C [10]: 40.9%
viability, T/C [11]: 43.9%
viability, T/C [12]: 32.5%
viability, T/C [13]: 76.7%
viability, T/C [14]: 80.9%
viability, T/C [15]: 56.1%
viability, T/C [16]: 39.1%
viability, T/C [17]: 46%
viability, T/C [18]: 59.5%
viability, T/C [19]: 92.7%
viability, T/C [20]: 48.8%
viability, T/C [21]: 52.6%
viability, T/C [22]: 56.2%
viability, T/C [23]: 42%
viability, T/C [24]: 34.6%
viability, T/C [25]: 51.5%
viability, T/C [26]: 54%
viability, T/C [27]: 38.8%
viability, T/C [28]: 36.8%
viability, T/C [29]: 23.5%
viability, T/C [30]: 54.1%

IC50 (second compound 0.1 µM): < 9.49 nM
IC50 (second compound 0.316 µM): < 9.49 nM
IC50 (second compound 1 µM): < 9.49 nM
IC50 (second compound 3.16 µM): < 9.49 nM
IC50 (second compound 10 µM): < 9.49 nM
SMILES: Cc1nc(N2CCC3(CC2)COC(C)C3N)c(CO)nc1Sc1ccnc(N)c1Cl (stereo not given) + Cc1c(S(C)(=O)=O)c(-c2cc(F)cc(N3CCN(c4ccc(NS(=O)(=O)c5ccc(NC(CCN6CCC(C(=O)OCCCP(=O)(O)O)CC6)CSc6ccccc6)c(S(=O)(=O)C(F)(F)F)c5)cc4)CC3)c2)c(-c2ccc(Cl)cc2)n1C(C)C
viability, T/C (second compound 0.1 µM, first compound 0.00949 µM): 49.6%
viability, T/C (second compound 0.1 µM, first compound 0.03 µM): 46.2%
viability, T/C (second compound 0.1 µM, first compound 0.0949 µM): 40.3%
viability, T/C (second compound 0.1 µM, first compound 0.3 µM): 26.5%
viability, T/C (second compound 0.1 µM, first compound 0.949 µM): 14.2%
viability, T/C (second compound 0.1 µM, first compound 3 µM): 13.8%
viability, T/C (second compound 0.316 µM, first compound 0.00949 µM): 42.4%
viability, T/C (second compound 0.316 µM, first compound 0.03 µM): 43.5%
viability, T/C (second compound 0.316 µM, first compound 0.0949 µM): 34.6%
viability, T/C (second compound 0.316 µM, first compound 0.3 µM): 23%
viability, T/C (second compound 0.316 µM, first compound 0.949 µM): 12.7%
viability, T/C (second compound 0.316 µM, first compound 3 µM): 9.74%
viability, T/C (second compound 1 µM, first compound 0.00949 µM): 33.5%
viability, T/C (second compound 1 µM, first compound 0.03 µM): 33.9%
viability, T/C (second compound 1 µM, first compound 0.0949 µM): 38.6%
viability, T/C (second compound 1 µM, first compound 0.3 µM): 21.9%
viability, T/C (second compound 1 µM, first compound 0.949 µM): 17.7%
viability, T/C (second compound 1 µM, first compound 3 µM): 10.4%
viability, T/C (second compound 3.16 µM, first compound 0.00949 µM): 26.5%
viability, T/C (second compound 3.16 µM, first compound 0.03 µM): 47.5%
viability, T/C (second compound 3.16 µM, first compound 0.0949 µM): 26.4%
viability, T/C (second compound 3.16 µM, first compound 0.3 µM): 21.2%
viability, T/C (second compound 3.16 µM, first compound 0.949 µM): 16.8%
viability, T/C (second compound 3.16 µM, first compound 3 µM): 10.5%
viability, T/C (second compound 10 µM, first compound 0.00949 µM): 33.3%
viability, T/C (second compound 10 µM, first compound 0.03 µM): 36%
viability, T/C (second compound 10 µM, first compound 0.0949 µM): 25.8%
viability, T/C (second compound 10 µM, first compound 0.3 µM): 23.6%
viability, T/C (second compound 10 µM, first compound 0.949 µM): 9.38%
viability, T/C (second compound 10 µM, first compound 3 µM): 6.34%

IC50 (second compound 0.1 µM): < 3.16 nM
IC50 (second compound 0.316 µM): < 3.16 nM
IC50 (second compound 1 µM): < 3.16 nM
IC50 (second compound 3.16 µM): < 3.16 nM
IC50 (second compound 10 µM): < 3.16 nM
SMILES: CNC(C)C(=O)NC1CN(S(=O)(=O)c2cccc(S(=O)(=O)N3CCC4CCC(C(=O)NC(c5ccccc5)c5ccccc5)N4C(=O)C(NC(=O)C(C)NC)C3)c2)CCC2CCC(C(=O)NC(c3ccccc3)c3ccccc3)N2C1=O (stereo not given) + Cc1c(S(C)(=O)=O)c(-c2cc(F)cc(N3CCN(c4ccc(NS(=O)(=O)c5ccc(NC(CCN6CCC(C(=O)OCCCP(=O)(O)O)CC6)CSc6ccccc6)c(S(=O)(=O)C(F)(F)F)c5)cc4)CC3)c2)c(-c2ccc(Cl)cc2)n1C(C)C
viability, T/C (second compound 0.1 µM, first compound 0.00316 µM): 27.1%
viability, T/C (second compound 0.1 µM, first compound 0.01 µM): 20%
viability, T/C (second compound 0.1 µM, first compound 0.0316 µM): 39.1%
viability, T/C (second compound 0.1 µM, first compound 0.1 µM): 20.2%
viability, T/C (second compound 0.1 µM, first compound 0.316 µM): 13.6%
viability, T/C (second compound 0.1 µM, first compound 1 µM): 12.2%
viability, T/C (second compound 0.316 µM, first compound 0.00316 µM): 36.2%
viability, T/C (second compound 0.316 µM, first compound 0.01 µM): 24.1%
viability, T/C (second compound 0.316 µM, first compound 0.0316 µM): 15.8%
viability, T/C (second compound 0.316 µM, first compound 0.1 µM): 24.4%
viability, T/C (second compound 0.316 µM, first compound 0.316 µM): 14.7%
viability, T/C (second compound 0.316 µM, first compound 1 µM): 12.1%
viability, T/C (second compound 1 µM, first compound 0.00316 µM): 29.8%
viability, T/C (second compound 1 µM, first compound 0.01 µM): 23.5%
viability, T/C (second compound 1 µM, first compound 0.0316 µM): 18.2%
viability, T/C (second compound 1 µM, first compound 0.1 µM): 22.5%
viability, T/C (second compound 1 µM, first compound 0.316 µM): 11.4%
viability, T/C (second compound 1 µM, first compound 1 µM): 10.7%
viability, T/C (second compound 3.16 µM, first compound 0.00316 µM): 23.7%
viability, T/C (second compound 3.16 µM, first compound 0.01 µM): 15.9%
viability, T/C (second compound 3.16 µM, first compound 0.0316 µM): 16.7%
viability, T/C (second compound 3.16 µM, first compound 0.1 µM): 12%
viability, T/C (second compound 3.16 µM, first compound 0.316 µM): 9.91%
viability, T/C (second compound 3.16 µM, first compound 1 µM): 26.8%
viability, T/C (second compound 10 µM, first compound 0.00316 µM): 26.3%
viability, T/C (second compound 10 µM, first compound 0.01 µM): 14.5%
viability, T/C (second compound 10 µM, first compound 0.0316 µM): 16.1%
viability, T/C (second compound 10 µM, first compound 0.1 µM): 14.2%
viability, T/C (second compound 10 µM, first compound 0.316 µM): 16.2%
viability, T/C (second compound 10 µM, first compound 1 µM): 7.68%
